Laboratory results: PubChem BioAssay AID248 (DTP/NCI, 2004)
Where “and” joins values, the source holds several entries; their conditions need not be identical. Equal entries are not always repeated. Toxic doses and inconclusive results are not listed. Cut-off read from the data, not from the text of the source: active = T/C of 150% or more; inactive = T/C below 125%.

Tested on: L1210 leukemia ip in BDF1 mice, survival T/C
Assay: NCI In Vivo Anticancer Drug Screen. Data for tumor model L1210 Leukemia (intraperitoneal) in B6D2F1 (BDF1) mice
Conditions: endpoint: mean survival time, higher = longer survival
In short: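 Tumor was transplanted into mice, which were then dosed with test compound or vehicle alone. Survival was recorded for each group, and the treated figure was expressed relative to the control figure.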

[1] = dose: 100.0 mg/kg/injection, schedule: Q04DX003 (ip), vehicle: saline with Tween-80
[2] = dose: 200.0 mg/kg/injection, schedule: Q04DX003 (ip), vehicle: saline with Tween-80
[3] = dose: 400.0 mg/kg/injection, schedule: Q04DX003 (ip), vehicle: saline with Tween-80
[4] = dose: 100.0 mg/kg/injection, schedule: Q01DX009 (ip), vehicle: Klucel (hydroxypropylcellulose) (HPC)
[5] = dose: 200.0 mg/kg/injection, schedule: Q01DX009 (ip), vehicle: Klucel (hydroxypropylcellulose) (HPC)
[6] = dose: 400.0 mg/kg/injection, schedule: Q01DX009 (ip), vehicle: Klucel (hydroxypropylcellulose) (HPC)
[7] = dose: 100.0 mg/kg/injection, schedule: Q04DX003 (ip), vehicle: saline
[8] = dose: 200.0 mg/kg/injection, schedule: Q04DX003 (ip), vehicle: saline

Measured: T/C

O=[N+]([O-])c1ccccc1N=P(c1ccccc1)(c1ccccc1)c1ccccc1
inactive: dose: 50.0 mg/kg/injection, schedule: Q01DX009 (ip), vehicle: DMSO 91 % of control | dose: 100.0 mg/kg/injection, schedule: Q01DX009 (ip), vehicle: DMSO 88 % of control | dose: 100.0 mg/kg/injection, schedule: Q04DX003 (ip), vehicle: DMSO 93 % of control | dose: 200.0 mg/kg/injection, schedule: Q04DX003 (ip), vehicle: DMSO 93 % of control

CCCCCCCCCCCCCCCCCCNC(=O)Nc1cc(C)ccc1C
inactive: dose: 100.0 mg/kg/injection, schedule: Q01DX009 (ip), vehicle: gum acacia 87 % of control | dose: 100.0 mg/kg/injection, schedule: Q04DX003 (ip), vehicle: gum acacia 92 % of control | dose: 200.0 mg/kg/injection, schedule: Q01DX009 (ip), vehicle: gum acacia 96 % of control | dose: 200.0 mg/kg/injection, schedule: Q04DX003 (ip), vehicle: gum acacia 92 % of control | dose: 400.0 mg/kg/injection, schedule: Q01DX009 (ip), vehicle: gum acacia 92 % of control | dose: 400.0 mg/kg/injection, schedule: Q04DX003 (ip), vehicle: gum acacia 87 % of control

Nc1ccc([N+](=O)[O-])c(-c2ccccc2)c1[N+](=O)[O-]
inactive: dose: 100.0 mg/kg/injection, schedule: Q01DX001 (ip), vehicle: carboxymethylcellulose (CMC) 91 % of control | dose: 200.0 mg/kg/injection, schedule: Q01DX001 (ip), vehicle: carboxymethylcellulose (CMC) 91 % of control | dose: 400.0 mg/kg/injection, schedule: Q01DX001 (ip), vehicle: carboxymethylcellulose (CMC) 91 % of control

COC(=O)c1ccccc1C[P+](c1ccccc1)(c1ccccc1)c1ccccc1
inactive: dose: 0.75 mg/kg/injection, schedule: Q01DX001 (ip), vehicle: saline with Tween-80 90 % of control | dose: 0.75 mg/kg/injection, schedule: Q01DX009 (ip), vehicle: saline 91 % of control | dose: 0.75 mg/kg/injection, schedule: Q04DX003 (ip), vehicle: saline 108 % of control | dose: 1.5 mg/kg/injection, schedule: Q01DX001 (ip), vehicle: saline with Tween-80 101 % of control | dose: 1.5 mg/kg/injection, schedule: Q01DX009 (ip), vehicle: saline 102 % of control | dose: 1.5 mg/kg/injection, schedule: Q04DX003 (ip), vehicle: saline 106 % of control | dose: 3.0 mg/kg/injection, schedule: Q01DX001 (ip), vehicle: saline with Tween-80 100 % of control and 106 % of control | dose: 3.0 mg/kg/injection, schedule: Q01DX009 (ip), vehicle: saline 94 % of control | dose: 3.0 mg/kg/injection, schedule: Q04DX003 (ip), vehicle: saline 116 % of control | dose: 3.12 mg/kg/injection, schedule: Q01DX009 (ip), vehicle: saline 100 % of control and 106 % of control | dose: 6.0 mg/kg/injection, schedule: Q01DX001 (ip), vehicle: saline with Tween-80 101 % of control | dose: 6.25 mg/kg/injection, schedule: Q01DX009 (ip), vehicle: saline with Tween-80 97 % of control and 111 % of control | dose: 6.25 mg/kg/injection, schedule: Q01DX009 (ip), vehicle: saline 100 % of control and 91 % of control | dose: 12.5 mg/kg/injection, schedule: Q04DX002 (ip), vehicle: Klucel (hydroxypropylcellulose) (HPC) 102 % of control | dose: 25.0 mg/kg/injection, schedule: Q01DX001 (ip), vehicle: saline with Tween-80 98 % of control | dose: 25.0 mg/kg/injection, schedule: Q04DX002 (ip), vehicle: Klucel (hydroxypropylcellulose) (HPC) 88 % of control | dose: 25.0 mg/kg/injection, schedule: Q04DX002 (ip), vehicle: saline with Tween-80 104 % of control and 88 % of control | dose: 50.0 mg/kg/injection, schedule: Q01DX001 (ip), vehicle: saline with Tween-80 106 % of control | dose: 50.0 mg/kg/injection, schedule: Q04DX002 (ip), vehicle: Klucel (hydroxypropylcellulose) (HPC) 102 % of control

CN(C(N)=S)c1ccccc1
inactive: [1] 101 % of control | [2] 102 % of control | [3] 104 % of control

CCOC(=O)c1cc(OC(C)=O)c2c(ccc3ccccc32)c1C
inactive: [4] 98 % of control | [5] 88 % of control | [6] 91 % of control

O=C1CCCC/C1=C\c1cccc2ccccc12
inactive: dose: 100.0 mg/kg/injection, schedule: Q04DX002 (ip), vehicle: saline with Tween-80 103 % of control | dose: 200.0 mg/kg/injection, schedule: Q04DX002 (ip), vehicle: saline with Tween-80 96 % of control | dose: 400.0 mg/kg/injection, schedule: Q04DX002 (ip), vehicle: saline with Tween-80 88 % of control

COc1ccc(NC(=O)Nc2cc(C(F)(F)F)ccc2Cl)cc1
inactive: [1] 88 % of control | [2] 91 % of control | [3] 86 % of control

O=C(O)COc1ccc(Br)cn1
inactive: dose: 100.0 mg/kg/injection, schedule: Q04DX002 (ip), vehicle: Klucel (hydroxypropylcellulose) (HPC) 104 % of control | dose: 200.0 mg/kg/injection, schedule: Q04DX002 (ip), vehicle: Klucel (hydroxypropylcellulose) (HPC) 101 % of control | dose: 400.0 mg/kg/injection, schedule: Q04DX002 (ip), vehicle: Klucel (hydroxypropylcellulose) (HPC) 104 % of control

O=S(=O)([O-])O.O=S(O)S(=O)O.[Co+3].[NH2-].[NH2-].[NH2-].[NH2-].[NH2-]
inactive: dose: 25.0 mg/kg/injection, schedule: Q04DX002 (ip), vehicle: saline 91 % of control | dose: 50.0 mg/kg/injection, schedule: Q04DX002 (ip), vehicle: saline 97 % of control

COC(=O)c1ccccc1NC(=O)CCl
inactive: [1] 99 % of control | [2] 91 % of control

CN(C)CC1CCCCN1 (stereo unspecified)
inactive: [7] 93 % of control | [8] 97 % of control

CCCCSCCN
inactive: dose: 75.0 mg/kg/injection, schedule: Q01DX009 (ip), vehicle: Klucel (hydroxypropylcellulose) (HPC) 95 % of control | dose: 150.0 mg/kg/injection, schedule: Q01DX009 (ip), vehicle: Klucel (hydroxypropylcellulose) (HPC) 93 % of control

CCc1c(CNc2ccc(C(=O)NC(CC(=O)O)CC(=O)O)cc2)ccc2nc(N)nc(N)c12
inactive: dose: 0.25 mg/kg/injection, schedule: Q01DX009 (ip), vehicle: saline 114 % of control | dose: 1.0 mg/kg/injection, schedule: Q01DX009 (ip), vehicle: saline 103 % of control | dose: 1.0 mg/kg/injection, schedule: Q04DX003 (ip), vehicle: saline 118 % of control

O=C(N/N=C/c1ccccc1Cl)c1ccccc1NC(=O)C1CC1
inactive: [4] 97 % of control | [5] 98 % of control | [6] 101 % of control

O=C(NC1(C(=O)O)CCCC1)C(F)(F)F
inactive: [7] 98 % of control | [8] 118 % of control | dose: 400.0 mg/kg/injection, schedule: Q04DX003 (ip), vehicle: saline 111 % of control

CN(Cc1ccccc1)C(=S)[S-].CN(Cc1ccccc1)C(=S)[S-].[Zn]
inactive: dose: 2.5 mg/kg/injection, schedule: Q01DX009 (ip), vehicle: acetone 100 % of control | dose: 5.0 mg/kg/injection, schedule: Q01DX009 (ip), vehicle: acetone 87 % of control | dose: 5.0 mg/kg/injection, schedule: Q04DX003 (ip), vehicle: saline 95 % of control | dose: 10.0 mg/kg/injection, schedule: Q01DX001 (ip), vehicle: saline 91 % of control | dose: 10.0 mg/kg/injection, schedule: Q01DX009 (ip), vehicle: acetone 89 % of control | dose: 10.0 mg/kg/injection, schedule: Q04DX003 (ip), vehicle: saline 92 % of control | dose: 20.0 mg/kg/injection, schedule: Q01DX001 (ip), vehicle: saline 93 % of control | dose: 20.0 mg/kg/injection, schedule: Q04DX003 (ip), vehicle: saline 89 % of control

CCN(CC)CCCN1C(=O)c2ccccc2S1(=O)=O
inactive: dose: 44.0 mg/kg/injection, schedule: Q01DX Z (ip), vehicle: saline 102 % of control | dose: 66.0 mg/kg/injection, schedule: Q01DX Z (ip), vehicle: saline 102 % of control | dose: 100.0 mg/kg/injection, schedule: Q01DX Z (ip), vehicle: saline 108 % of control

Cc1cc(C(=O)CBr)c(CN2C(=O)c3ccccc3C2=O)c(=O)n1C
inactive: dose: 100.0 mg/kg/injection, schedule: Q01DX001 (ip), vehicle: saline with Tween-80 101 % of control
